Measured values taken from patent US11427567B2, “Imidazolyl pyrimidinylamine compounds as CDK2 inhibitors” (Incyte Corporation, priority 2019, dated 2022).

Biological target: CDK2/Cyclin E1 (Homo sapiens (Human), UniProt P24941)
Experiment: CDK2/Cyclin E1 HTRF enzyme activity assay (Example A)
Format: biochemical
Settings: 1 mM ATP
Protocol: Assays were conducted in white 384-well polystyrene plates in a final reaction volume of 8 μL. […] HTRF signals were read after 1 hour at room temperature on a PHERAstar FS plate reader (BMG Labtech). Data was analyzed with IDBS XLFit and GraphPad Prism 5.0 software using a three or four parameter dose response curve to determine IC50 for each compound.

Row | Structure (SMILES) | IC50
1 | CN(C)CCNc1ccc(-n2cnc(-c3nc(NC4CCN(S(C)(=O)=O)CC4)ncc3C(F)(F)F)c2)c(C#N)c1 [Example 432, 5-((2-(Dimethylamino)ethyl)amino)-2-(4-(2-((1-(methylsulfonyl)piperidin-4-yl)amino)-5-(trifluoromethyl)pyrimidin-4-yl)-1H-imidazol-1-yl)benzonitrile] | ≤ 50 nM
2 | CN(C)CCc1ccc(-n2cnc(-c3nc(NC4CCN(S(C)(=O)=O)CC4)ncc3C(F)(F)F)c2)c(C#N)c1 [Example 433, 5-(2-(Dimethylamino)ethyl)-2-(4-(2-((1-(methylsulfonyl)piperidin-4-yl)amino)-5-(trifluoromethyl)pyrimidin-4-yl)-1H-imidazol-1-yl)benzonitrile] | ≤ 50 nM
3 | CS(=O)(=O)N1CCC(Nc2ncc(C(F)(F)F)c(-c3cn(-c4ccc(CCN5CCCC5)cc4C#N)cn3)n2)CC1 [Example 434, 2-(4-(2-((1-(Methylsulfonyl)piperidin-4-yl)amino)-5-(trifluoromethyl)pyrimidin-4-yl)-1H-imidazol-1-yl)-5-(2-(pyrrolidin-1-yl)ethyl)benzonitrile] | ≤ 50 nM
4 | CN(C)CCOc1ccc(-n2cnc(-c3nc(NC4CCN(S(C)(=O)=O)CC4)ncc3C(F)(F)F)c2)c(C#N)c1 [Example 435, 5-(2-(Dimethylamino)ethoxy)-2-(4-(2-((1-(methylsulfonyl)piperidin-4-yl)amino)-5-(trifluoromethyl)pyrimidin-4-yl)-1H-imidazol-1-yl)benzonitrile] | ≤ 50 nM
5 | CCOc1ccc(-n2cnc(-c3nc(NC4CCN(S(C)(=O)=O)CC4)ncc3C(F)(F)F)c2)c(C#N)c1 [Example 436, 5-Ethoxy-2-(4-(2-((1-(methylsulfonyl)piperidin-4-yl)amino)-5-(trifluoromethyl)pyrimidin-4-yl)-1H-imidazol-1-yl)benzonitrile] | ≤ 50 nM
6 | CS(=O)(=O)N1CCC(Nc2ncc(C(F)(F)F)c(-c3cn(-c4ccc(OCCN5CCCC5)cc4C#N)cn3)n2)CC1 [Example 437, 2-(4-(2-((1-(Methylsulfonyl)piperidin-4-yl)amino)-5-(trifluoromethyl)pyrimidin-4-yl)-1H-imidazol-1-yl)-5-(2-(pyrrolidin-1-yl)ethoxy)benzonitrile] | ≤ 50 nM
7 | CCN1CCC(c2ccc(-n3cnc(-c4nc(NC5CCN(S(C)(=O)=O)CC5)ncc4C(F)(F)F)c3)c(Cl)c2)CC1 [Example 438, 4-(1-(2-Chloro-4-(1-ethylpiperidin-4-yl)phenyl)-1H-imidazol-4-yl)-N-(1-(methylsulfonyl)piperidin-4-yl)-5-(trifluoromethyl)pyrimidin-2-amine] | ≤ 50 nM
8 | CN1CCC(c2ccc(-n3cnc(-c4nc(NC5CCN(S(C)(=O)=O)CC5)ncc4C(F)(F)F)c3)c(Cl)c2)CC1 [Example 439, 4-(1-(2-Chloro-4-(1-methylpiperidin-4-yl)phenyl)-1H-imidazol-4-yl)-N-(1-(methylsulfonyl)piperidin-4-yl)-5-(trifluoromethyl)pyrimidin-2-amine] | ≤ 50 nM
9 | CN1CC(c2ccc(-n3cnc(-c4nc(NC5CCN(S(C)(=O)=O)CC5)ncc4C(F)(F)F)c3)c(Cl)c2)C1 [Example 440, 4-(1-(2-Chloro-4-(1-methylazetidin-3-yl)phenyl)-1H-imidazol-4-yl)-N-(1-(methylsulfonyl)piperidin-4-yl)-5-(trifluoromethyl)pyrimidin-2-amine] | ≤ 50 nM
10 | CS(=O)(=O)N1CCC(Nc2ncc(C(F)(F)F)c(-c3cn(-c4ccc(CN5CCOC5=O)cc4Cl)cn3)n2)CC1 [Example 441, 3-(3-Chloro-4-(4-(2-((1-(methylsulfonyl)piperidin-4-yl)amino)-5-(trifluoromethyl)pyrimidin-4-yl)-1H-imidazol-1-yl)benzyl)oxazolidin-2-one] | ≤ 50 nM
11 | CS(=O)(=O)N1CCC(Nc2ncc(C(F)(F)F)c(-c3cn(-c4ccccc4Br)cn3)n2)CC1 [Example 442, 4-(1-(2-Bromophenyl)-1H-imidazol-4-yl)-N-(1-(methylsulfonyl)piperidin-4-yl)-5-(trifluoromethyl)pyrimidin-2-amine] | ≤ 50 nM
12 | CN1CCN(Cc2cc(F)c(-n3cnc(-c4nc(N[C@H]5CCN(S(C)(=O)=O)C[C@H]5F)ncc4C(F)(F)F)c3)c(F)c2)CC1 [Example 443, 4-(1-(2,6-Difluoro-4((4-methylpiperazin-1-yl)methyl)phenyl)-1H-imidazol-4-yl)-N-((3R,4S)-3-fluoro-1-(methylsulfonyl)piperidin-4-yl)-5-(trifluoromethyl)pyrimidin-2-amine] | ≤ 50 nM
13 | CCNCc1cc(F)c(-n2cnc(-c3nc(N[C@H]4CCN(S(C)(=O)=O)C[C@H]4F)ncc3C(F)(F)F)c2)c(F)c1 [Example 444, 4-(1-(4-((Ethylamino)methyl)-2,6-difluorophenyl)-1H-imidazol-4-yl)-N-((3R,4S)-3-fluoro-1-(methylsulfonyl)piperidin-4-yl)-5-(trifluoromethyl)pyrimidin-2-amine] | ≤ 50 nM
14 | CCN1CCN(Cc2ccc(-n3cc(-c4nc(N[C@H]5CCN(S(C)(=O)=O)C[C@H]5F)ncc4C(F)(F)F)nc3C)c(F)c2)CC1 [Example 445, 4-(1-(4-((4-Ethylpiperazin-1-yl)methyl)-2-fluorophenyl)-2-methyl-1H-imidazol-4-yl)-N-((3R,4S)-3-fluoro-1-(methylsulfonyl)piperidin-4-yl)-5-(trifluoromethyl)pyrimidin-2-amine] | ≤ 50 nM
15 | Cc1nc(-c2nc(N[C@H]3CCN(S(C)(=O)=O)C[C@H]3F)ncc2C(F)(F)F)cn1-c1ccc(CN2CCC(C)(O)CC2)cc1F [Example 446, 1-(3-Fluoro-4-(4-(2-(((3R,4S)-3-fluoro-1-(methylsulfonyl)piperidin-4-yl)amino)-5-(trifluoromethyl)pyrimidin-4-yl)-2-methyl-1H-imidazol-1-yl)benzyl)-4-methylpiperidin-4-ol] | ≤ 50 nM
16 | CCN1CCN(Cc2cc(F)c(-n3cnc(-c4nc(N[C@H]5CCN(S(C)(=O)=O)C[C@H]5F)ncc4C(F)(F)F)c3)c(F)c2)CC1 [Example 447, 4-(1-(4-((4-Ethylpiperazin-1-yl)methyl)-2,6-difluorophenyl)-1H-imidazol-4-yl)-N-((3R,45)-3-fluoro-1-(methylsulfonyl)piperidin-4-yl)-5-(trifluoromethyl)pyrimidin-2-amine] | ≤ 50 nM
17 | CS(=O)(=O)N1CCC(Nc2ncc(C(F)(F)F)c(-c3cn(-c4ccc(CNCC(F)F)cc4C(F)(F)F)cn3)n2)CC1 [Example 448, 4-(1-(4-(((2,2-Difluoroethyl)amino)methyl)-2-(trifluoromethyl)phenyl)-1H-imidazol-4-yl)-N-(1-(methylsulfonyl)piperidin-4-yl)-5-(trifluoromethyl)pyrimidin-2-amine] | ≤ 50 nM
18 | CC1(O)CN(Cc2ccc(-n3cnc(-c4nc(NC5CCN(S(C)(=O)=O)CC5)ncc4C(F)(F)F)c3)c(C(F)(F)F)c2)C1 [Example 449, 3-Methyl-1-(4-(4-(2-((1-(methylsulfonyl)piperidin-4-yl)amino)-5-(trifluoromethyl)pyrimidin-4-yl)-1H-imidazol-1-yl)-3-(trifluoromethyl)benzyl)azetidin-3-ol] | ≤ 50 nM
19 | Cc1cc(CNCC(F)F)ccc1-n1cnc(-c2nc(NC3CCN(S(C)(=O)=O)CC3)ncc2C(F)(F)F)c1 [Example 450, 4-(1-(4-(((2,2-Difluoroethyl)amino)methyl)-2-methylphenyl)-1H-imidazol-4-yl)-N-(1-(methylsulfonyl)piperidin-4-yl)-5-(trifluoromethyl)pyrimidin-2-amine] | ≤ 50 nM
20 | CN1CCN(Cc2ccc(-n3cnc(-c4nc(NC5CCN(S(C)(=O)=O)CC5)ncc4C(F)(F)F)c3)c(Cl)c2)C(=O)C1 [Example 451, 1-(3-Chloro-4-(4-(2-((1-(methylsulfonyl)piperidin-4-yl)amino)-5-(trifluoromethyl)pyrimidin-4-yl)-1H-imidazol-1-yl)benzyl)-4-methylpiperazin-2-one] | ≤ 50 nM
21 | CS(=O)(=O)N1CCC(Nc2ncc(C(F)(F)F)c(-c3cn(-c4ccc(CN5CCC5=O)cc4Cl)cn3)n2)CC1 [Example 452, 1-(3-Chloro-4-(4-(2-((1-(methylsulfonyl)piperidin-4-yl)amino)-5-(trifluoromethyl)pyrimidin-4-yl)-1H-imidazol-1-yl)benzyl)azetidin-2-one] | ≤ 50 nM
22 | CN1CCN(Cc2ccc(-n3cnc(-c4nc(NC5CCN(S(C)(=O)=O)CC5)ncc4C(F)(F)F)c3)c(Cl)c2)C1=O [Example 453, 1-(3-Chloro-4-(4-(2-((1-(methylsulfonyl)piperidin-4-yl)amino)-5-(trifluoromethyl)pyrimidin-4-yl)-1H-imidazol-1-yl)benzyl)-3-methylimidazolidin-2-one] | ≤ 50 nM
23 | CS(=O)(=O)N1CCC(Nc2ncc(C(F)(F)F)c(-c3cn(-c4ccc(CN5CCCC5=O)cc4Cl)cn3)n2)CC1 [Example 454, 1-(3-Chloro-4-(4-(2-((1-(methylsulfonyl)piperidin-4-yl)amino)-5-(trifluoromethyl)pyrimidin-4-yl)-1H-imidazol-1-yl)benzyl)pyrrolidin-2-one] | ≤ 50 nM
24 | Cc1nc(-c2nc(NC3CCN(S(C)(=O)=O)CC3)ncc2C(F)(F)F)cn1-c1ccc(N2CCC(N3CCC(O)C3)CC2)cc1F (centres unmarked) [Example 455, 1-(1-(3-Fluoro-4-(2-methyl-4-(2-((1-(methylsulfonyl)piperidin-4-yl)amino)-5-(trifluoromethyl)pyrimidin-4-yl)-1H-imidazol-1-yl)phenyl)piperidin-4-yl)pyrrolidin-3-ol] | ≤ 50 nM
25 | Cc1nc(-c2nc(NC3CCN(S(C)(=O)=O)CC3)ncc2C(F)(F)F)cn1-c1ccc(N2CC(C)(O)C2)cc1F [Example 456, 1-(3-Fluoro-4-(2-methyl-4-(2-((1-(methylsulfonyl)piperidin-4-yl)amino)-5-(trifluoromethyl)pyrimidin-4-yl)-1H-imidazol-1-yl)phenyl)-3-methylazetidin-3-ol] | ≤ 50 nM
26 | CN1CCN(CCc2ccc(-n3cnc(-c4nc(NC5CCN(S(C)(=O)=O)CC5)ncc4C(F)(F)F)c3)c(C#N)c2)CC1 [Example 457, 5-(2-(4-Methylpiperazin-1-yl)ethyl)-2-(4-(2-((1-(methylsulfonyl)piperidin-4-yl)amino)-5-(trifluoromethyl)pyrimidin-4-yl)-1H-imidazol-1-yl)benzonitrile] | ≤ 50 nM
